# What was measured:
# [1] = tested on: Malassezia furfur CBS 7019; assay: MIC of oils and their components, microtitre plate assay; assay type: cell-based; conditions: substance alone
# Description: (§1) Studies into anti-microbial action were performed using a microtitre plate cross-assay in triplicate against the type strain Malassezia furfur CBS 7019. The Fractional Inhibitory Concentration (FIC), the concentration of biocide in a mixture of biocides that inhibits growth, was determined for natural oils and a number of terpenoid components with the conventional anti-dandruff/anti-fungal agents.
# [2] = tested on: Malassezia furfur CBS 7019; assay: Microtitre plate cross-assay, Fractional Inhibitory Concentration (FIC) with conventional anti-dandruff/anti-fungal agents; assay type: cell-based; conditions: M. furfur CBS 7019; for FIC interpretation with Octopirox / FIC values with Octopirox: combination with Octopirox; for FIC values with Octopirox / FIC values with climbazole / FIC values with zinc pyrithione (ZnPTO): triplicate; for FIC interpretation with climbazole / FIC values with climbazole: combination with climbazole; for FIC interpretation with zinc pyrithione (ZnPTO) / FIC values with zinc pyrithione (ZnPTO): combination with zinc pyrithione (ZnPTO)
# Description: FIC values are for activity against M.furfur, such as CBS 7019, and are calculated in ways well-known in the art.
# as §1
# The definition of synergy is a combination of biocides in which the effect is greater than the sum of the expected effects of the individual components.
Structure (SMILES),MIC values for oils and their components [1],FIC interpretation with Octopirox [2],FIC values with Octopirox [2],FIC interpretation with climbazole [2],FIC values with climbazole [2],FIC interpretation with zinc pyrithione (ZnPTO) [2],FIC values with zinc pyrithione (ZnPTO) [2]
C=CCc1ccc(OC)cc1 [4-allylanisole],0.25%,antagonistic (>1 antagonistic),2,antagonistic (>1 antagonistic),2,synergy (<1 synergy),0.725
C=C1C2CCC(C2)C1(C)C (centres unmarked) [Camphene],>8%,,,,,,
CC12CCC(CC1)C(C)(C)O2 [Cineole],1%,,,,,,
"C=CCc1ccc(O)c(OC)c1 [Eugenol, eugenol]",0.01%,synergy (<1 synergy),0.567,synergy (<1 synergy),0.56,synergy (<1 synergy),0.625
CC1=CCC(O)(C(C)C)CC1 (centres unmarked) [terpinen-4-ol],,antagonistic (>1 antagonistic),2,,0.37,synergy (<1 synergy),0.83
CC1=CCC2CC1C2(C)C (stereo not drawn) [α-pinene],0.3%,antagonistic (>1 antagonistic),2,antagonistic (>1 antagonistic),2,antagonistic (>1 antagonistic),1.42

# The next lines start with results.
MIC values for oils and their components [1],Structure (SMILES),FIC interpretation with Octopirox [2],FIC values with Octopirox [2],FIC interpretation with climbazole [2],FIC values with climbazole [2],FIC interpretation with zinc pyrithione (ZnPTO) [2],FIC values with zinc pyrithione (ZnPTO) [2]
>8%,C=C(C)[C@H]1CC=C(C)CC1 [Limonene],antagonistic (>1 antagonistic),2,antagonistic (>1 antagonistic),2,antagonistic (>1 antagonistic),1.5
0.01%,"C=CC(C)(O)CCC=C(C)C (centres unmarked) [Linalool, linalool]",antagonistic (>1 antagonistic),2,,0.417,synergy (<1 synergy),0.625
0.02%,"CC1=CCC(C(C)(C)O)CC1 (stereo not drawn) [α-terpineol, alpha-terpineol]",,2,synergy (<1 synergy),0.625,antagonistic (>1 antagonistic),2
